Measurements: US12662452B2, “Solid state forms of lucerastat and process for preparation thereof” (ASSIA CHEMICAL INDUSTRIES LTD., priority 2019, dated 2026)

What was measured:
[1] = Exposure of the solid form to 20-80% relative humidity for 7 days at room temperature; format: physicochemical; conditions: exposed to 20-80% RH for 7 days at room temperature
[2] = Long term storage stability at 2-8° C.; format: physicochemical; conditions: storage at 2-8° C.

Substance	deliquescence [1]	polymorphic stability [1]	long term stability [2]
Lucerastat: L-Pyroglutamic acid	does not deliquesce	polymorphically stable	at least 1 year
Lucerastat: Salicylic acid [Lucerastat: Salicylic acid Form LC-2]	–	–	at least 1 year
